What all share (assay type): cell-based
Common to all, as to details: for Expected inhibition: Ee, Limpel formula; for Synergy: Io-Ee

The subject of test [1] is Candida albicans. Put plainly: Antifungal growth assay, defensin plus chemical fungicide. Also on record: key to Synergy: Io-Ee in % inhibition points; <15 none, 15-30 low, 30-60 medium, >60 high. Here is the method:
Chemical fungicides were sourced commercially and were prepared as 10× stock solutions in H2O (caspofungin and fenpropimorph) or as a 100× stock in methanol (terbinafine).
(§1) Spores are isolated from sporulating fungus spp. growing on yeast extract peptone dextrose agar (Candida albicans, Cryptococcus gattii—1.5×10^6) or ½ strength Sabouraud dextrose agar (Trichophyton interdigitale, Microsporum fulvum—5×10^4). Spores are removed from the plates by the addition of ½ strength potato dextrose broth (PDB). Spore concentrations are measured using a haemocytometer.
(§2) Antifungal assays were conducted in 96 well microtitre plates. Wells were loaded with 10 μL of filter sterilized (0.22 μm syringe filter, Millipore) defensin (10× stock for each final concentration) or water, 10 μL, of filter sterilized (0.22 μm syringe filter, Millipore) proteinase inhibitor or chemical fungicide (10× stock for each final concentration) or water and 80 μL of 5×10^3 spores/mL in ½ strength PDB. The plates were incubated at 24° C. Fungal growth was assayed by measuring optical density at 595 nm (A595) using a microtitre plate reader (SpectraMax Pro M2; Molecular Devices. Growth was allowed to proceed until the optical density (OD) of the fungus in the absence of any test defensin reached an OD of 0.2. Each test was performed in duplicate.
(§3) Synergy is classified as the difference between the observed % fungal growth inhibition caused by the combination of a defensin and a proteinase inhibitor (or a defensin and a chemical fungicide) (Io value) and the expected % fungal growth inhibition of the defensin and the proteinase inhibitor (or the defensin and the chemical fungicide) based on the sum of the % fungal growth inhibition of the defensin and the proteinase inhibitor (or the defensin and the chemical fungicide) on their own (Ee value calculated according to the Limpel formula used by Richer et al. (1987) supra). The difference, Io-Ee, is the synergy value. A synergy value up to 15 means no significant synergy; 15-30 is a low level of synergy; 30-60 is a medium level of synergy; and >60 is a high level of synergy. Synergy calculations are presented in Tables 2 through 7 wherein, as indicated above, Ee is the expected effect from the additive response according to Limpel's formula expressed as percent inhibition and To is the percent inhibition observed. Synergy occurs when To values are higher than Ee values.

Test [2] relates to Candida albicans. Put plainly: Antifungal growth assay, defensin plus proteinase inhibitor. Also on record: key to Synergy: Io-Ee in % inhibition points; >60 high synergy, <15 none. Here is the method:
as §1, §2, §3

The test system of test [3] is Trichophyton interdigitale. The description is as above. Here is the method: as §1, §2, §3
Setting [4] is: defensin 2.5 μM + Caspofungin (4 ng/ml).
Setting [5] is: defensin 4 μM + BPTI (0.625 μM).
Setting [6] is: defensin 4 μM + HyCPI6 (2.5 μM).
Setting [7] is: defensin 4 μM + SlCys9N (2.5 μM).
Setting [8] is: non-permeabilizing defensin 1 μM + Caspofungin (2 ng/ml).
[9] abbreviates: permeabilizing defensin 1 μM + Caspofungin (2 ng/ml).
The mark [10] stands for this setting: defensin 1 μM + HyCPI6 (2.5 μM).
The mark [11] stands for this setting: defensin 1 μM + SlCys9N (2.5 μM).
[12] abbreviates: defensin 2 μM + Fenpropimorph (2 ug/ml).
Setting [13] is: defensin 2 μM + BPTI (0.625 μM).
Setting [14] is: defensin 2 μM + HyCPI6 (2.5 μM).
Setting [15] is: defensin 2 μM + SlCys9N (2.5 μM).
Setting [16] is: defensin 1 μM + Fenpropimorph (2 ug/ml).
Where [17] appears, read: defensin 1 μM + BPTI (0.625 μM).
The mark [18] stands for this setting: defensin 0.5 μM + BPTI (0.625 μM).
Where [19] appears, read: defensin 0.5 μM + HvCPI6 (2.5 μM).
Setting [20] is: defensin 0.5 μM + SlCys9N (2.5 μM).

As to “HXL012: Class I permeabilizing plant defensin, mature protein SEQ ID NO:25 (RMCKAPSKLFRGMCGIRDSNCDSVCRAEGMAAGDCHGLRRRCICSRPC; HXL012 Amaranthus retroflexus)”, the Observed inhibition is listed as 51.2% in test [1] (setting [4]), 89.7% in test [2] (setting [5]), 100.0% in test [2] (setting [6]) and 97.3% in test [2] (setting [7]). The Expected inhibition is given as 0% in test [1] (setting [4]), 14.8% in test [2] (setting [5]), 12.3% in test [2] (setting [6]) and 34.5% in test [2] (setting [7]). Also, the Synergy in test [1] (setting [4]) amounted to 51.2; in test [2] (setting [5]), 74.9; in test [2] (setting [6]), 87.7; in test [2] (setting [7]), 62.8.

As for “RsAFP2: non-permeabilizing defensin used as comparison (QKLCQRPSGTWSGVCGNNNACKNQCIRLEKARHGSCNYVFPAHKCICYFPC; UniProt P30230 30-80, looked up) [reference compound]”, in test [1] (setting [8]), the Observed inhibition was 19.0%, the Expected inhibition worked out at 1.7% and the Synergy came to 17.3.

With “HXL002: Class I permeabilizing plant defensin, mature protein SEQ ID NO:27 (RDCLSQSHKFKGACLSSSNCAAVCRTENFPDGECHTHNFARKCFCKRAC; HXL002 Triticum aestivum)”, in test [1] (setting [4]), the Observed inhibition is recorded as 40.8%, the Expected inhibition is on record as 6.1% and the Synergy stood at 34.7.

Take “HXL013: Class I permeabilizing plant defensin, mature protein SEQ ID NO:31 (KDCLTRRHGFQGRCLFDRQCAHVCRSDGFIGGQCRGPLRKCFCSRPC; HXL013 glycine max)”: in test [1] (setting [9]), the Observed inhibition is recorded as 90.8%, the Expected inhibition stood at 4.3% and the Synergy is reported as 86.5. Besides, in test [2] (setting [10]), the Observed inhibition came out at 100.0%, the Expected inhibition was found to be 10.1% and the Synergy amounted to 89.9. Further, in test [2] (setting [11]), the Observed inhibition is given as 100.0%, the Expected inhibition worked out at 13.8% and the Synergy is recorded as 86.2.

As to “HXL008: Class I permeabilizing plant defensin, mature protein SEQ ID NO:30 (KVCTKPSKFFKGLCGTDGACTTACRKEGLHSGYCQLKGFLNSVCVCRKHC; HXL008 Picramnia pentandra)”, the Observed inhibition in test [1] (setting [12]) is 87.3%; in test [2] (setting [13]), 100.0%; in test [2] (setting [14]) it was 63.8%; in test [2] (setting [15]), 98.9%. Besides, the Expected inhibition in test [1] (setting [12]) turned out to be 46.7%; in test [2] (setting [13]), 0.0%; in test [2] (setting [14]) it was 14.8%; in test [2] (setting [15]), 30.2%. Also, the Synergy turned out to be 40.6 in test [1] (setting [12]), 100.0 in test [2] (setting [13]), 49.0 in test [2] (setting [14]) and 68.7 in test [2] (setting [15]).

In the case of “HXL009: Class I permeabilizing plant defensin, mature protein SEQ ID NO:33 (TVCMRHNNFYHGPCMSNKDCANSCVQHNLGVGGYCRGKIPFNKECMCTFEC; HXL009)”, in test [1] (setting [4]), the Observed inhibition is 65.2%, the Expected inhibition is 3.7% and the Synergy worked out at 61.5.

Consider “HXL004: Class I permeabilizing plant defensin, mature protein SEQ ID NO:28 (RTCESQSHRFKGLCFSRSNCASVCHTEGFNGGHCRGFRRRCFCTRHC; HXL004 Nicotiana benthamiana)”, for which the Observed inhibition in test [1] (setting [9]) stood at 92.3%; in test [2] (setting [13]), 91.2%; in test [2] (setting [14]), 93.5%; in test [2] (setting [15]) it was 81.8%. In addition, the Expected inhibition in test [1] (setting [9]) is 14.0%; in test [2] (setting [13]) it was 9.6%; in test [2] (setting [14]), 63.6%; in test [2] (setting [15]), 55.2%. Further, the Synergy is on record as 78.3 in test [1] (setting [9]), 81.6 in test [2] (setting [13]), 29.9 in test [2] (setting [14]) and 26.6 in test [2] (setting [15]).

For “HXL015: Class I permeabilizing plant defensin, mature protein SEQ ID NO:32 (RHCLSQSHRFKGMCVSSNNCANVCRTESFPDGECKSHGLERKCFCKKVC; HXL015 Oryza sativa)”, the Observed inhibition in test [1] (setting [16]) amounted to 71.8%; in test [2] (setting [17]) it was 100.0%; in test [2] (setting [10]), 100.0%; in test [2] (setting [11]) it was 94.7%. Also, the Expected inhibition in test [1] (setting [16]) is 19%; in test [2] (setting [17]), 28.1%; in test [2] (setting [10]), 0.0%; in test [2] (setting [11]) it was 0.0%. The Synergy in test [1] (setting [16]) was found to be 52.8; in test [2] (setting [17]), 71.9; in test [2] (setting [10]), 100.0; in test [2] (setting [11]), 94.7.

In the case of “HXL001: Class I permeabilizing plant defensin, mature protein SEQ ID NO:26 (RHCLSQSHRFKGLCMSSNNCANVCQTENFPGGECKAEGATRKCFCKKIC; HXL001 Zea mays)”, the Observed inhibition in test [1] (setting [4]) was 73.4%; in test [3] (setting [18]), 67.4%; in test [3] (setting [19]), 84.7%; in test [3] (setting [20]), 70.2%; in test [2] (setting [5]), 72.6%; in test [2] (setting [6]), 84.2%. Further, the Observed inhibition in test [2] (defensin 4 μM + SlCys9N (2 μM)) is recorded as 85.0%. For the same substance, the Expected inhibition in test [1] (setting [4]) turned out to be 11.7%; in test [3] (setting [18]), 36.9%; in test [3] (setting [19]) it was 32.5%; in test [3] (setting [20]), 16.8%; in test [2] (setting [5]) it was 2.6%; in test [2] (setting [6]), 59.2%. Besides, the Expected inhibition in test [2] (defensin 4 μM + SlCys9N (2 μM)) came out at 68.1%. In addition, the Synergy in test [1] (setting [4]) is listed as 61.7; in test [3] (setting [18]), 30.5; in test [3] (setting [19]) it was 52.2; in test [3] (setting [20]), 53.4; in test [2] (setting [5]), 70.1; in test [2] (setting [6]), 25.0. For the same substance, the Synergy in test [2] (defensin 4 μM + SlCys9N (2 μM)) is listed as 16.9.

(Values after patent US10568930B2, “Agents and methods of treatment” (Hexima Limited, priority 2014, dated 2020).)
